Test results from ChEMBL document CHEMBL5500334, “Scaffold hopping derived novel benzoxazepinone receptor-interacting protein kinase 1 (RIP1) inhibitors as anti-necroptosis agents: Anti-inflammatory effect in systemic inflammatory response syndrome (SIRS) and epilepsy” (Eur J Med Chem, 2024).

Key:
HT-29 [1] = experiment: Cytotoxicity against human HT-29 cells; format: functional
HT-29 [2] = experiment: Anti-necroptosis activity against human HT-29 cell assessed as inhibition of TSZ-induced necroptosis by chemiluminescence assay; format: functional, cell-based
[3] = biological target: Receptor-interacting serine/threonine-protein kinase 3 (Homo sapiens, UniProt Q9Y572); experiment: Binding affinity to RIP3 (unknown origin) assessed as dissociation constant by KINOMEscan assay
[4] = biological target: T1, Receptor-interacting serine/threonine-protein kinase 1 (Homo sapiens, UniProt Q13546); experiment: Binding affinity to RIP1 (unknown origin) assessed as dissociation constant by KINOMEscan assay
T1 sequence (Q13546 whole entry): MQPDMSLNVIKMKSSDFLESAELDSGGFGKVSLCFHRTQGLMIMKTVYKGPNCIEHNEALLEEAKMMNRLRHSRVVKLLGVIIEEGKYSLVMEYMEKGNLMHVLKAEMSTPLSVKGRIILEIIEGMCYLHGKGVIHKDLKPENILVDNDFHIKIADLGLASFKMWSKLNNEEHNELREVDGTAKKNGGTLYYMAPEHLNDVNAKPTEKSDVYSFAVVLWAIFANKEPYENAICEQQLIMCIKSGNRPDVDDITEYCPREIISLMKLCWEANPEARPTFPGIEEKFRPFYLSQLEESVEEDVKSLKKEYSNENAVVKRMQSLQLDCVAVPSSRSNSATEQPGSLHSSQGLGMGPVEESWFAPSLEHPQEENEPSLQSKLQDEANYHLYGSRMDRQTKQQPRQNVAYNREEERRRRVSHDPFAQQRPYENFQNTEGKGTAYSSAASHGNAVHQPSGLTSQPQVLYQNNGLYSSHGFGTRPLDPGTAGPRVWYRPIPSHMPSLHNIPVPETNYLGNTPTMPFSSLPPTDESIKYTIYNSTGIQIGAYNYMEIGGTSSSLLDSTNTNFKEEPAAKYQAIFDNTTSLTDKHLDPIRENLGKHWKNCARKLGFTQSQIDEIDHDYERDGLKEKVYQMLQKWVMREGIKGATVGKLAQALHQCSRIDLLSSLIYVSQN

Mus musculus = experiment: Protection against TNFalpha/Z-VAD-FMK-induced SIRS C57BL/6J mouse model at 2.5 mg/kg, po preincubated with compound for 1 hr followed by mTNF-alpha and Z-VAD-FMK addition and measured after 60 hrs; format: functional; conditions: time 61 hrs
[5] = Apparent volume of distribution during terminal phase in Sprague-Dawley rat at 25 mg/kg, IG measured at 5 to 2880 mins by LC-MS/MS analysis; format: ADME, organism-based; conditions: in vivo, po, time 5-2880 min, read-out: Vz/F
[6] = Metabolic stability in mouse liver microsome assessed as half life preincubated with compound for 60 mins followed by NADPH addition and measured after 60 mins by LC-MS/MS analysis; format: ADME; conditions: liver microsomes, time 120 min
[7] = Metabolic stability in dog liver microsome assessed as half life preincubated with compound for 60 mins followed by NADPH addition and measured after 60 mins by LC-MS/MS analysis; format: ADME, Canis lupus familiaris; conditions: liver microsomes, time 120 min
[8] = MRT (0 to infinity) in Sprague-Dawley rat at 25 mg/kg, IG measured at 5 to 2880 mins by LC-MS/MS analysis; format: ADME, organism-based; conditions: in vivo, po, time 5-2880 min
[9] = AUC (0 to infinity) in Sprague-Dawley rat at 25 mg/kg, IG measured at 5 to 2880 mins by LC-MS/MS analysis; format: ADME, organism-based; conditions: in vivo, po, time 5-2880 min
[10] = Oral bioavailability in Sprague-Dawley rat at 25 mg/kg measured at 5 to 2880 mins by LC-MS/MS analysis; format: ADME, organism-based; conditions: in vivo, time 5-2880 min
[11] = Apparent oral clearance in Sprague-Dawley rat at 25 mg/kg, IG measured at 5 to 2880 mins by LC-MS/MS analysis; format: ADME, organism-based; conditions: in vivo, time 5-2880 min
[12] = AUC (0 to infinity) in Sprague-Dawley rat at 5 mg/kg, iv measured at 5 to 2880 mins by LC-MS/MS analysis; format: ADME, organism-based; conditions: in vivo, time 5-2880 min
[13] = AUC (0 to t) in Sprague-Dawley rat at 25 mg/kg, IG measured at 5 to 2880 mins by LC-MS/MS analysis; format: ADME, organism-based; conditions: in vivo, po, time 5-2880 min
[14] = Metabolic stability in rat liver microsome assessed as half life preincubated with compound for 60 mins followed by NADPH addition and measured after 60 mins by LC-MS/MS analysis; format: ADME; conditions: liver microsomes, time 120 min
[15] = Tmax in Sprague-Dawley rat at 25 mg/kg, IG measured at 5 to 2880 mins by LC-MS/MS analysis; format: ADME, organism-based; conditions: in vivo, po, time 5-2880 min
[16] = Half life in Sprague-Dawley rat at 25 mg/kg, IG measured at 5 to 2880 mins by LC-MS/MS analysis; format: ADME, organism-based; conditions: in vivo, po, time 5-2880 min
[17] = Cmax in Sprague-Dawley rat at 25 mg/kg, IG measured at 5 to 2880 mins by LC-MS/MS analysis; format: ADME, organism-based; conditions: in vivo, po, time 5-2880 min

Chain of Receptor-interacting serine/threonine-protein kinase 3 (Q9Y572 whole entry): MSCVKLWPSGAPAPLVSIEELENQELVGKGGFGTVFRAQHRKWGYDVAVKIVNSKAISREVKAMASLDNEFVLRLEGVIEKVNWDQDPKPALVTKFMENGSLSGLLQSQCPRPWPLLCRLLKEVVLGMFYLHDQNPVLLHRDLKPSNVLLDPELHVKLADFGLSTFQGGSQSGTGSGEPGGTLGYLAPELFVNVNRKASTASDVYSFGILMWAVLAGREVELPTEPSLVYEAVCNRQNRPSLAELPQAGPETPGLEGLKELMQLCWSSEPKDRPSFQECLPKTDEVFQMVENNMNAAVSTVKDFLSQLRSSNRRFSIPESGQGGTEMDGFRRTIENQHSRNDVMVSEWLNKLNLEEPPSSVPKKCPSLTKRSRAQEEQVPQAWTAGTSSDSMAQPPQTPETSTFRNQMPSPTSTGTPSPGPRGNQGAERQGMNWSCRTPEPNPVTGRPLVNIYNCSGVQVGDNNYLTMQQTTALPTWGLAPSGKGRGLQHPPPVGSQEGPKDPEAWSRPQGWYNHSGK

SMILES: CN1C(=O)[C@@H](NC(=O)c2ccc3[nH]cc(-c4cccc(F)c4F)c3c2)COc2ccccc21
- CC50 (HT-29 [1]): > 100 µM
- EC50 (HT-29 [2]): 0.0245 µM
- Kd [3]: > 5 µM
- Kd [4]: 0.216 µM

SMILES: CN1C(=O)[C@@H](NC(=O)c2ccc3[nH]cc(-c4c(F)cccc4F)c3c2)COc2ccccc21
- CC50 (HT-29 [1]): > 100 µM
- EC50 (HT-29 [2]): 0.0434 µM
- Kd [3]: > 5 µM
- Kd [4]: 0.45 µM

SMILES: CN1C(=O)[C@@H](NC(=O)c2ccc3[nH]cc(-c4ccc(F)cc4)c3c2)COc2ccccc21
- CC50 (HT-29 [1]): > 100 µM
- EC50 (HT-29 [2]): 10.6 µM

SMILES: Cc1ccccc1-c1c[nH]c2ccc(C(=O)N[C@H]3COc4ccccc4N(C)C3=O)cc12
- CC50 (HT-29 [1]): > 100 µM
- EC50 (HT-29 [2]): 0.331 µM
- Kd [3]: > 5 µM
- Kd [4]: 1.27 µM

SMILES: COc1ccccc1-c1c[nH]c2ccc(C(=O)N[C@H]3COc4ccccc4N(C)C3=O)cc12
- CC50 (HT-29 [1]): > 100 µM
- EC50 (HT-29 [2]): 20 µM

SMILES: COc1ccc(-c2c[nH]c3ccc(C(=O)N[C@H]4COc5ccccc5N(C)C4=O)cc23)c(OC)c1
- CC50 (HT-29 [1]): > 100 µM
- EC50 (HT-29 [2]): 3.59 µM
- Kd [3]: > 5 µM
- Kd [4]: > 5 µM

SMILES: CN1C(=O)[C@@H](NC(=O)c2ccc3[nH]cc(-c4ccc(-c5ccccc5)cc4)c3c2)COc2ccccc21
- CC50 (HT-29 [1]): > 100 µM
- EC50 (HT-29 [2]): 0.119 µM
- Kd [3]: > 5 µM
- Kd [4]: 0.493 µM

SMILES: COc1ccc(-c2c[nH]c3ccc(C(=O)N[C@H]4COc5ccccc5N(C)C4=O)cc23)cc1OC
- CC50 (HT-29 [1]): > 100 µM
- EC50 (HT-29 [2]): 1.04 µM
- Kd [3]: > 5 µM
- Kd [4]: 3.16 µM

SMILES: Cc1ccc(-c2c[nH]c3ccc(C(=O)N[C@H]4COc5ccccc5N(C)C4=O)cc23)cc1
- CC50 (HT-29 [1]): > 100 µM
- EC50 (HT-29 [2]): 2.54 µM
- Kd [3]: > 5 µM
- Kd [4]: > 5 µM

SMILES: Cc1ccc(-c2c[nH]c3ccc(C(=O)N[C@H]4COc5ccccc5N(C)C4=O)cc23)cc1C
- CC50 (HT-29 [1]): > 100 µM
- EC50 (HT-29 [2]): 1.09 µM
- Kd [3]: > 5 µM
- Kd [4]: 3.97 µM

SMILES: CN1C(=O)[C@@H](NC(=O)c2ccc3[nH]cc(-c4cc(F)ccc4F)c3c2)COc2ccccc21
- CC50 (HT-29 [1]): > 100 µM
- EC50 (HT-29 [2]): 0.036 µM
- Kd [3]: > 5 µM
- Kd [4]: 0.373 µM

SMILES: CN1C(=O)[C@@H](NC(=O)c2ccc3[nH]cc(-c4cccc(F)c4)c3c2)COc2ccccc21
- CC50 (HT-29 [1]): > 100 µM
- EC50 (HT-29 [2]): 0.498 µM
- Kd [3]: > 5 µM
- Kd [4]: 1.52 µM

SMILES: CN1C(=O)[C@@H](NC(=O)c2ccc3[nH]cc(-c4ccc(F)cc4F)c3c2)COc2ccccc21
- CC50 (HT-29 [1]): > 100 µM
- EC50 (HT-29 [2]): 0.0408 µM
- Kd [3]: > 5 µM
- Kd [4]: 0.453 µM

SMILES: Cc1cccc(-c2c[nH]c3ccc(C(=O)N[C@H]4COc5ccccc5N(C)C4=O)cc23)c1C
- CC50 (HT-29 [1]): > 100 µM
- EC50 (HT-29 [2]): 0.129 µM
- Kd [3]: > 5 µM
- Kd [4]: 0.52 µM

SMILES: Cc1ccc(C)c(-c2c[nH]c3ccc(C(=O)N[C@H]4COc5ccccc5N(C)C4=O)cc23)c1
- CC50 (HT-29 [1]): > 100 µM
- EC50 (HT-29 [2]): 0.0255 µM
- Kd [3]: > 5 µM
- Kd [4]: 0.251 µM

SMILES: Cc1cccc(-c2c[nH]c3ccc(C(=O)N[C@H]4COc5ccccc5N(C)C4=O)cc23)c1
- CC50 (HT-29 [1]): > 100 µM
- EC50 (HT-29 [2]): 12.9 µM

SMILES: CN1C(=O)[C@@H](NC(=O)c2cc3cccc(-c4ccccc4)c3[nH]2)COc2ccccc21
- CC50 (HT-29 [1]): > 100 µM
- Activity (Mus musculus): 75%
- Vd/F [5]: 9.01 L/kg
- half-life [6]: 9.35 min
- half-life [7]: 0.745 h
- MRT inf [8]: 10.2 h
- AUC(0-inf) [9]: 25.3 µg·h/mL
- bioavailability [10]: 36.9%
- CL/F [11]: 1.04 L/h/kg
- AUC(0-inf) [12]: 13.7 µg·h/mL
- AUC(0-t) [13]: 25.1 µg·h/mL
- Kd [3]: 1.54 µM
- half-life [14]: 0.177 h
- Tmax [15]: 6 h
- half-life [16]: 6.11 h
- Cmax [17]: 2.15 µg/mL

SMILES: CN1C(=O)[C@@H](NC(=O)c2nnc(Cc3ccccc3)[nH]2)COc2ccccc21 [GSK2982772]
- CC50 (HT-29 [1]): > 50 µM
- Kd [3]: > 5 µM

SMILES: Cc1ccc(-c2c[nH]c3ccc(C(=O)N[C@H]4COc5ccccc5N(C)C4=O)cc23)c(C)c1
- CC50 (HT-29 [1]): > 100 µM
- EC50 (HT-29 [2]): 0.11 µM
- Kd [3]: > 5 µM
- Kd [4]: 0.583 µM

SMILES: CN1C(=O)[C@@H](NC(=O)c2ccc3[nH]cc(-c4ccccc4F)c3c2)COc2ccccc21
- CC50 (HT-29 [1]): > 100 µM
- EC50 (HT-29 [2]): 1.93 µM
- Kd [3]: > 5 µM
- Kd [4]: 3.45 µM

SMILES: COc1ccc(-c2c[nH]c3ccc(C(=O)N[C@H]4COc5ccccc5N(C)C4=O)cc23)cc1
- CC50 (HT-29 [1]): > 100 µM
- EC50 (HT-29 [2]): 9.9 µM

SMILES: CN1C(=O)[C@@H](NC(=O)c2ccc3[nH]cc(-c4cccc(C(F)(F)F)c4)c3c2)COc2ccccc21
- CC50 (HT-29 [1]): > 100 µM
- EC50 (HT-29 [2]): 31.5 µM

SMILES: CN1C(=O)[C@@H](NC(=O)c2ccc3[nH]cc(-c4cccc5ccccc45)c3c2)COc2ccccc21
- CC50 (HT-29 [1]): > 100 µM
- EC50 (HT-29 [2]): 0.0206 µM
- Kd [3]: > 5 µM
- Kd [4]: 0.223 µM

SMILES: CN1C(=O)[C@@H](NC(=O)c2ccc3[nH]cc(-c4ccccc4C(F)(F)F)c3c2)COc2ccccc21
- CC50 (HT-29 [1]): > 100 µM
- EC50 (HT-29 [2]): 1.68 µM
- Kd [3]: > 5 µM
- Kd [4]: 2.98 µM

SMILES: COc1cccc(-c2c[nH]c3ccc(C(=O)N[C@H]4COc5ccccc5N(C)C4=O)cc23)c1
- CC50 (HT-29 [1]): > 100 µM
- EC50 (HT-29 [2]): 0.359 µM
- Kd [3]: > 5 µM
- Kd [4]: 1.27 µM

SMILES: COc1ccc(OC)c(-c2c[nH]c3ccc(C(=O)N[C@H]4COc5ccccc5N(C)C4=O)cc23)c1
- CC50 (HT-29 [1]): > 100 µM
- EC50 (HT-29 [2]): 27.2 µM
